Results as given in the CheMixHub viscosity set.
± gives the uncertainty stated by the source.

Assay: xn = mol fraction of the nth substance listed
Settings: 101 kPa

OCCCCO + CS(C)=O
viscosity [mPa·s]
Settings	293.15 K	298.15 K	303.15 K	308.15 K	313.15 K	318.15 K
x1 = 0.0436	2.61 ± 0.05	2.25 ± 0.05	2.06 ± 0.04	1.81 ± 0.04	1.67 ± 0.04	1.55 ± 0.03
x1 = 0.0879	3 ± 0.06	2.59 ± 0.05	2.35 ± 0.05	2.06 ± 0.04	1.89 ± 0.04	1.74 ± 0.04
x1 = 0.1327	3.46 ± 0.07	2.97 ± 0.06	2.68 ± 0.06	2.34 ± 0.05	2.13 ± 0.04	1.96 ± 0.04
x1 = 0.1781	4.01 ± 0.08	3.4 ± 0.07	3.06 ± 0.06	2.66 ± 0.06	2.41 ± 0.05	2.21 ± 0.05
x1 = 0.2242	4.66 ± 0.1	3.92 ± 0.08	3.51 ± 0.07	3.05 ± 0.06	2.73 ± 0.06	2.53 ± 0.05
x1 = 0.2709	5.43 ± 0.11	4.53 ± 0.09	4.05 ± 0.08	3.49 ± 0.07	3.13 ± 0.07	–
x1 = 0.3183	6.36 ± 0.13	5.27 ± 0.11	4.7 ± 0.1	4 ± 0.08	3.55 ± 0.07	–
x1 = 0.3663	7.51 ± 0.16	6.19 ± 0.13	5.47 ± 0.11	4.63 ± 0.1	4.08 ± 0.08	–
x1 = 0.415	8.85 ± 0.18	7.3 ± 0.15	6.4 ± 0.13	5.38 ± 0.11	4.7 ± 0.1	–
x1 = 0.4644	10.5 ± 0.2	8.6 ± 0.18	7.5 ± 0.15	6.3 ± 0.13	5.47 ± 0.11	–
x1 = 0.5145	12.7 ± 0.3	10.3 ± 0.2	8.9 ± 0.18	7.4 ± 0.15	6.4 ± 0.13	–
x1 = 0.5653	15.4 ± 0.3	12.4 ± 0.3	10.6 ± 0.2	8.8 ± 0.18	7.5 ± 0.15	–
x1 = 0.6169	18.9 ± 0.4	15 ± 0.3	12.8 ± 0.3	10.5 ± 0.2	8.9 ± 0.18	–
x1 = 0.6692	23.4 ± 0.5	18.5 ± 0.4	15.6 ± 0.3	12.7 ± 0.3	10.7 ± 0.2	–
x1 = 0.7223	29.2 ± 0.6	22.9 ± 0.5	19.1 ± 0.4	15.4 ± 0.3	12.9 ± 0.3	–
x1 = 0.7762	36.7 ± 0.8	28.4 ± 0.6	23.5 ± 0.5	18.9 ± 0.4	15.6 ± 0.3	–
x1 = 0.8309	46.5 ± 1	35.7 ± 0.7	29.3 ± 0.6	23.2 ± 0.5	19 ± 0.4	–
x1 = 0.8864	59.2 ± 1.2	44.8 ± 0.9	36.4 ± 0.7	28.6 ± 0.6	23.3 ± 0.5	–
x1 = 0.9428	75.2 ± 1.6	56.4 ± 1.1	45.4 ± 0.9	35.5 ± 0.7	28.7 ± 0.6	–
